Key:
PC-3 cells = test: CyQUANT direct cell proliferation assay, PC-3; assay type: cell-based; conditions: WCE 25 μg/ml or 10 nM docetaxel, 48 h
Protocol: (§1) After 48 h, viable cell numbers were determined using CyQUANT direct cell proliferation assay.

[1] = test system: PC-3 AR-negative prostate cancer cells; test: murine model for androgen independent prostate cancer, orthotopic PC-3 luciferase cells; assay type: in vivo, mice; conditions: daily WCE by gavage, weekly docetaxel into tail vein; 8 week course
Protocol: Tumor growth was measured weekly by bioluminescent imaging. Animals were also weighed weekly.

DU145 cells = test: CyQUANT direct cell proliferation assay, DU145; assay type: cell-based; conditions: WCE 25 μg/ml or 10 nM docetaxel, 48 h
Protocol: as §1

LNCaP cells = test: growth rate of LNCaP cells; assay type: cell-based; conditions: 20 μg/ml enzalutamide
LNCaP-CR cells = test: growth rate of LNCaP-CR cells; assay type: cell-based; conditions: 20 μg/ml enzalutamide

SMILES	growth of PC-3 cells (FIG. 3A) (PC-3 cells)	body weight (FIG. 4B) [1]	growth of DU145 cells (FIG. 3B) (DU145 cells)	growth of LNCaP cells (FIG. 2C) (LNCaP cells)	growth of LNCaP-CR cells (FIG. 2D) (LNCaP-CR cells)
CC(=O)O[C@@]12CO[C@@H]1C[C@H](O)[C@@]1(C)C(=O)[C@H](O)C3=C(C)[C@@H](OC(=O)[C@H](O)[C@@H](NC(=O)OC(C)(C)C)c4ccccc4)C[C@@](O)([C@@H](OC(=O)c4ccccc4)[C@H]21)C3(C)C [docetaxel]	inhibited growth	large decrease in body weight	inhibited growth	–	–
CNC(=O)c1ccc(N2C(=S)N(c3ccc(C#N)c(C(F)(F)F)c3)C(=O)C2(C)C)cc1F [enzalutamide]	–	–	–	significantly inhibited the growth	significantly less growth inhibition
